Results taken from paper PMC11157767 (Molecular Cancer, 2024).

System: TFG-MET allograft tumors
Assay: RNA-sequencing, differential expression and GSEA of TFG-MET allograft tumors
Format: in vivo, mouse
Description: Error bars display standard error of mean, statistical significance was determined using t-test analysis. (****;p<0.0001, ***;p<0.001, **;p<0.01, *;p<0.05). […] Each dot represents an individual replicate. Error bars display standard error of the mean.
Each dot represents one gene.

[1] = GSEA CAP vs Veh, C5 GO CC, padj 0.0837675
[2] = GSEA CAP vs Veh, C5 GO CC, padj 0.118081
[3] = GSEA CAP vs Veh, C5 GO CC, padj 0.15025
[4] = GSEA CAP vs Veh, C5 GO CC, padj 0.172143
[5] = GSEA CAP vs Veh, C5 GO CC, padj 0.185573
[6] = GSEA CAP vs Veh, C5 GO CC, padj 0.189724
[7] = GSEA CAP vs Veh, C5 GO CC, padj 0.205885
[8] = GSEA CAP vs Veh, C5 GO CC, padj 0.207988
[9] = capmatinib vs vehicle, PD cohort

CNC(=O)c1ccc(-c2cnc3ncc(Cc4ccc5ncccc5c4)n3n2)cc1F [Capmatinib]
NES GOCC_TRIGLYCERIDE_RICH_PLASMA_LIPOPROTEIN_PARTICLE [1]: 1.6067 | NES GOCC_VESICLE_TETHERING_COMPLEX [1]: 1.4789 | NES GOCC_IMMUNOLOGICAL_SYNAPSE (GSEA CAP vs Veh, C5 GO CC, padj 0.0851978): 1.513 | NES GOCC_TOR_COMPLEX (GSEA CAP vs Veh, C5 GO CC, padj 0.0863609): -1.558 | NES GOCC_POTASSIUM_CHANNEL_COMPLEX (GSEA CAP vs Veh, C5 GO CC, padj 0.0898434): 1.3322 | NES GOCC_PHOTORECEPTOR_OUTER_SEGMENT (GSEA CAP vs Veh, C5 GO CC, padj 0.0912598): 1.398 | NES GOCC_NON_MOTILE_CILIUM (GSEA CAP vs Veh, C5 GO CC, padj 0.0963826): 1.327 | NES GOCC_COLLAGEN_TRIMER (GSEA CAP vs Veh, C5 GO CC, padj 0.100203): 1.361 | NES GOCC_CYCLIN_DEPENDENT_PROTEIN_KINASE_HOLOENZYME_COMPLEX (GSEA CAP vs Veh, C5 GO CC, padj 0.101289): -1.485 | NES GOCC_PHAGOPHORE_ASSEMBLY_SITE_MEMBRANE (GSEA CAP vs Veh, C5 GO CC, padj 0.101632): 1.59 | NES GOCC_MICROTUBULE_END (GSEA CAP vs Veh, C5 GO CC, padj 0.104588): -1.488 | NES GOCC_MRNA_CLEAVAGE_AND_POLYADENYLATION_SPECIFICITY_FACTOR_COMPLEX (GSEA CAP vs Veh, C5 GO CC, padj 0.106777): -1.514 | NES GOCC_PERICENTRIOLAR_MATERIAL (GSEA CAP vs Veh, C5 GO CC, padj 0.107544): -1.541 | NES GOCC_SPERM_MIDPIECE (GSEA CAP vs Veh, C5 GO CC, padj 0.11014): 1.543 | NES GOCC_FILAMENTOUS_ACTIN (GSEA CAP vs Veh, C5 GO CC, padj 0.113803): -1.495 | NES GOCC_CONDENSED_NUCLEAR_CHROMOSOME (GSEA CAP vs Veh, C5 GO CC, padj 0.117551): -1.436 | NES GOCC_ENDOPLASMIC_RETICULUM_EXIT_SITE [2]: -1.477 | NES GOCC_MITOTIC_SPINDLE [2]: -1.3459 | NES GOCC_TERTIARY_GRANULE_LUMEN [2]: 1.448 | NES GOCC_MICROTUBULE_ORGANIZING_CENTER (GSEA CAP vs Veh, C5 GO CC, padj 0.119924): -1.201 | NES GOCC_ESC_E_Z_COMPLEX (GSEA CAP vs Veh, C5 GO CC, padj 0.125326): -1.503 | NES GOCC_MITOCHONDRIAL_PROTEIN_CONTAINING_COMPLEX (GSEA CAP vs Veh, C5 GO CC, padj 0.144325): 1.2339 | NES GOCC_MICROBODY_LUMEN [3]: 1.378 | NES GOCC_PLATELET_DENSE_GRANULE [3]: 1.446 | NES GOCC_POSTSYNAPTIC_CYTOSOL [3]: -1.504 | NES GOCC_DNA_HELICASE_COMPLEX (GSEA CAP vs Veh, C5 GO CC, padj 0.150544): -1.462 | NES GOCC_H4_H2A_HISTONE_ACETYLTRANSFERASE_COMPLEX (GSEA CAP vs Veh, C5 GO CC, padj 0.153451): -1.479 | NES GOCC_T_TUBULE (GSEA CAP vs Veh, C5 GO CC, padj 0.166785): 1.333 | NES GOCC_CELL_DIVISION_SITE [4]: -1.364 | NES GOCC_CILIARY_MEMBRANE [4]: 1.297 | NES GOCC_NUCLEAR_INNER_MEMBRANE [4]: -1.39 | NES GOCC_SPERM_PRINCIPAL_PIECE [4]: 1.449 | NES GOCC_PROTEIN_KINASE_COMPLEX (GSEA CAP vs Veh, C5 GO CC, padj 0.174487): -1.355 | NES GOCC_SARCOPLASMIC_RETICULUM_MEMBRANE (GSEA CAP vs Veh, C5 GO CC, padj 0.176238): 1.347 | NES GOCC_TRANSCRIPTION_FACTOR_TFIID_COMPLEX (GSEA CAP vs Veh, C5 GO CC, padj 0.181046): -1.393 | NES GOCC_ENDOSOME_LUMEN [5]: 1.406 | NES GOCC_SPECIFIC_GRANULE_LUMEN [5]: 1.358 | NES GOCC_CLATHRIN_ADAPTOR_COMPLEX [6]: 1.366 | NES GOCC_MITOTIC_SPINDLE_POLE [6]: -1.382 | NES GOCC_MEMBRANE_MICRODOMAIN (GSEA CAP vs Veh, C5 GO CC, padj 0.192589): 1.19 | NES GOCC_CELL_BODY_MEMBRANE (GSEA CAP vs Veh, C5 GO CC, padj 0.197703): 1.35 | NES GOCC_VACUOLAR_PROTON_TRANSPORTING_V_TYPE_ATPASE_COMPLEX (GSEA CAP vs Veh, C5 GO CC, padj 0.198626): 1.413 | NES GOCC_DENDRITIC_SHAFT [7]: 1.333 | NES GOCC_NUCLEAR_OUTER_MEMBRANE [7]: -1.409 | NES GOCC_SAGA_TYPE_COMPLEX (GSEA CAP vs Veh, C5 GO CC, padj 0.206418): -1.409 | NES GOCC_CLATHRIN_COAT [8]: 1.308 | NES GOCC_PHOTORECEPTOR_INNER_SEGMENT [8]: 1.275 | NES GOCC_INTEGRAL_COMPONENT_OF_SYNAPTIC_VESICLE_MEMBRANE (GSEA CAP vs Veh, C5 GO CC, padj 0.210702): 1.319 | expression of Mapk signature genes in tumors (RNA-sequencing of treated allograft tumors): significant downregulation | GSEA NES, PID_Atm_pathway [9]: -1.751 | GSEA NES, PID_Atr_pathway [9]: -2.041 | expression of genes involved in the DNA repair machinery (capmatinib-treated vs vehicle tumors, PD cohort): downregulated
